Reference: patent US11072619B2, “Pyrazole[1,5-a] pyrimidine derivatives as kinase JAK inhibitors” (CELON PHARMA S.A., priority 2017, dated 2021)

Tests used:
Recombinant kinase JAK3 = Recombinant kinase JAK3 (Homo sapiens (Human), UniProt P52333); assay: In vitro JAK kinase inhibition assay (ADP-Glo), JAK3; format: biochemical; details: 30 μM ATP, peptide IGF-1Rtide, averaged
Description: (§1) In Vitro JAK Kinase Inhibition Assay
(§2) The effects of the compounds of the invention were analysed in vitro using kinase JAK inhibition assay described below.
(§3) Tested compounds were dissolved in 100% DMSO, and obtained stock solutions were serially diluted in the reaction buffer (50 mM Tris pH 7.5, 10 mM MgCl2, 0.25 mM EGTA, 0.1 mM Na3VO4, 0.01% Triton X-100, 2.5 mM DTT). Recombinant kinases JAK1 (ProQinase), JAK2, or JAK3 (Carna Biosciences) were diluted in the dilution buffer (50 mM Tris-HCl pH 7.5, 150 mM NaCl, 10% glycerol, 0.05% Triton X-100, 1 mM DTT) to the final concentration 3 ng/μL (JAK1), 0.1 ng/μL (JAK2), or 0.2 ng/μL (JAK3). 5 μL of obtained solution of the compounds and 5 μL of the solution of respective kinases were added to the well of a 96-well plate. To initiate interaction between tested compounds and an enzyme, the plate was incubated for 10 minutes at 25° C. in a Plate-Thermo-Shaker with orbital stirring at 400 rpm. Wells of a negative control contained all reagents as mentioned above with the exception of tested compounds and kinase, and wells of a positive controls contained all reagents as mentioned above with the exception of tested compounds. Enzymatic reaction was initiated by the addition of 15 μL of the following solution: 5× concentrated reaction buffer (50 mM Tris pH 7.5, 10 mM MgCl2, 0.25 mM EGTA, 0.1 mM Na3VO4, 0.01% Triton X-100, 2.5 mM DTT), water, 30 μM ATP and for particular kinases: JAK1—60 μM peptide IRS-1 (Enzo), JAK2 or JAK3—10 μM peptide IGF-1Rtide (Lipopharm). Then the plate was incubated for 1 hour at 25° C. in a Plate-Thermo-Shaker, with orbital stirring at 400 rpm. Detection of ADP formed in the enzymatic reaction was then performed using ADP-Glo Kinase Assay kit (Promega). For this purpose, to the well of the 96-well plate 25 μL of ADP-Glo Reagent were added, and the plate was incubated for 40 minutes at 25° C. in a Plate-Thermo-Shaker with orbital stirring at 400 rpm. Then to the well of the 96-well plate 50 μL of Kinase Detection Reagent were added and the plate was incubated for 30 minutes at 25° C. in a Plate-Thermo-Shaker with orbital stirring at 400 rpm. After incubation, luminescence intensity was measured using Victor×Light luminometer (Perkin Elmer, Inc.).
(§4) On the basis of luminescence measurement in wells containing tested compounds at various concentrations and in control wells, IC50 values were determined. These values were determined with Graph Pad software v. 5.03, by fitting points of the curve using non-linear regression method. Each compound was tested in at least 6 repetitions (6 wells) on two 96-well plates, using at least 3 wells of each control.
(§5) Averaged results of kinases JAK inhibition activity for selected compounds of the present invention are presented below in Table 1.

Recombinant kinase JAK1 = Recombinant kinase JAK1 (Homo sapiens (Human), UniProt P23458); assay: In vitro JAK kinase inhibition assay (ADP-Glo), JAK1; format: biochemical; details: 30 μM ATP, peptide IRS-1, averaged
Sequence of Recombinant kinase JAK1 (P23458 whole entry): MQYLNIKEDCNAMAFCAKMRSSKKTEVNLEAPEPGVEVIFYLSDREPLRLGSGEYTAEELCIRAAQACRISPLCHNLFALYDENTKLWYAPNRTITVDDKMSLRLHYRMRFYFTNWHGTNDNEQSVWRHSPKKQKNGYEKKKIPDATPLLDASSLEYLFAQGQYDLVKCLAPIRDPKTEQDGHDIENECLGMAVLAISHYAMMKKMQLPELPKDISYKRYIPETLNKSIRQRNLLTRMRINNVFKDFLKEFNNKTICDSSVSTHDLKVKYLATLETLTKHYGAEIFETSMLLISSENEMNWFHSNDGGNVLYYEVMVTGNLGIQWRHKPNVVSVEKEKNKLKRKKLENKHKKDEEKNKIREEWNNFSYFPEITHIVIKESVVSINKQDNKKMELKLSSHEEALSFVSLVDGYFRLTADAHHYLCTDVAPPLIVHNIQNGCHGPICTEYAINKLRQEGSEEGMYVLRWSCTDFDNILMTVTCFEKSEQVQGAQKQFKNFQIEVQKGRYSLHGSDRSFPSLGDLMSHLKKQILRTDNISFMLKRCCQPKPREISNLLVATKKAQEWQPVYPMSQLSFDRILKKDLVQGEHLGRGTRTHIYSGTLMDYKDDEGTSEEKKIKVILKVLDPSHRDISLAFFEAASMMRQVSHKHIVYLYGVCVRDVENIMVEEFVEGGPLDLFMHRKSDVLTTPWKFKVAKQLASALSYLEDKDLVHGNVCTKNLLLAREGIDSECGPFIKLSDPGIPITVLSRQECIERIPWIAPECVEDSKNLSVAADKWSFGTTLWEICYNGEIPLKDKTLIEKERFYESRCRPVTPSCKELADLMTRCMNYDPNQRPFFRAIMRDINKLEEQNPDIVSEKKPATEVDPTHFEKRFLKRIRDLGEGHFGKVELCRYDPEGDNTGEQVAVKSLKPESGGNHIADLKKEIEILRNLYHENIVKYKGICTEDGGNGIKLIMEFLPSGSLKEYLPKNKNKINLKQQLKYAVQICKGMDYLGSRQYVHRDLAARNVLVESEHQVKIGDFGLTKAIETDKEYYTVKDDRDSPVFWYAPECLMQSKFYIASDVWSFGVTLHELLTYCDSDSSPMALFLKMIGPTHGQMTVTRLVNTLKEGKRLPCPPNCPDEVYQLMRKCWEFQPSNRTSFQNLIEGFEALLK
Description: as §1, §2, §3, §4, §5

Recombinant kinase JAK2 = Recombinant kinase JAK2 (Homo sapiens (Human), UniProt O60674); assay: In vitro JAK kinase inhibition assay (ADP-Glo), JAK2; format: biochemical; details: 30 μM ATP, peptide IGF-1Rtide, averaged
Sequence of Recombinant kinase JAK2 (O60674 whole entry): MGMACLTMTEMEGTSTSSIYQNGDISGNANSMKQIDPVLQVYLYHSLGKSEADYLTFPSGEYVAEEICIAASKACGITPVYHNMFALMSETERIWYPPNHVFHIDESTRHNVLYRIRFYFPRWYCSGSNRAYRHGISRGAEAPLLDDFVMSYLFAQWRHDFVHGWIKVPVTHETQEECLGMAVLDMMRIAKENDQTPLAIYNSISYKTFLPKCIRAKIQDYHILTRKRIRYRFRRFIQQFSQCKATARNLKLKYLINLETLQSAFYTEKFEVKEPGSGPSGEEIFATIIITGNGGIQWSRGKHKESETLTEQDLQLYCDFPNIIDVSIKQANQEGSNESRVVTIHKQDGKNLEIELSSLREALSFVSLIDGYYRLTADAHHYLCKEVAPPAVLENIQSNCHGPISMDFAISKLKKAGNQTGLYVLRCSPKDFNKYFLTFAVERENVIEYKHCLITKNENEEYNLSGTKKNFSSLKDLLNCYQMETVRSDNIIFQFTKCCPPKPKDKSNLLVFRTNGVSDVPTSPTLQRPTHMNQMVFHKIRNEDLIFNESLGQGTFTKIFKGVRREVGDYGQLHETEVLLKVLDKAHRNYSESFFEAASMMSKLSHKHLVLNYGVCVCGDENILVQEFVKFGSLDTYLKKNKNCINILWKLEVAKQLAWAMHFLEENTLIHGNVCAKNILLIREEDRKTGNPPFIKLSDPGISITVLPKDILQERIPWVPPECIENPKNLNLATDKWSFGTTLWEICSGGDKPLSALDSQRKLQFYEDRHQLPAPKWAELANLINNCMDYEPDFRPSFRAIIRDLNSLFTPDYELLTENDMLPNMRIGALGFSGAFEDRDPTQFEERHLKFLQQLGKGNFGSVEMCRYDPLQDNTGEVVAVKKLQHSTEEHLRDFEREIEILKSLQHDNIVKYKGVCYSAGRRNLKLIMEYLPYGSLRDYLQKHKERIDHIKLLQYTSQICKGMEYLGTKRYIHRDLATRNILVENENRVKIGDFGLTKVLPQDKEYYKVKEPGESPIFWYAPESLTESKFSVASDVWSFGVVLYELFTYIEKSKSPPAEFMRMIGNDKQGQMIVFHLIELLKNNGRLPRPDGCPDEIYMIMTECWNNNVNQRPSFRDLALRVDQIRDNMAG
Description: as §1, §2
as §3, with “Enzymatic reaction was initiated by the addition of 15 μL of the following solution: 5× concentrated reaction buffer (50 mM Tris pH 7.5, 10 mM MgCl2, 0.25 mM EGTA, 0.1 mM Na3VO4, 0.01% Triton X-100, 2.5 mM DTT), water, 30 μM ATP and for particular kinases: JAK1—60 μM peptide IRS-1 (Enzo), JAK2 or JAK3—10 μM peptide IGF-1Rtide (Lipopharm).” left out
as §4

[1] = system: TNFα secreted by lymphocytes T; assay: Inhibition of TNFα production by lymphocytes T in vitro; format: cell-based; details: Lymphocyte, 48 hours, human CD4+ lymphocytes T; for inhibition at 0.01 µM: 10 nM; for inhibition at 0.1 µM: 100 nM; for inhibition at 1 µM: 1000 nM
Description: Assay for Inhibition of TNFα and INFγ Production by Lymphocytes T In Vitro
The activity of the compounds of the invention was tested using in vitro assay described below.
Tested compounds were dissolved in 100% DMSO, and obtained stock solutions were serially diluted with OptiMEM medium (Reduced Serum Medium-Thermo Fisher Scientific). Lymhocytes were isolated from leukocyte top coat layer obtained from human peripheral blood. Isolation of peripheral blood mononuclear cells was performed using Ficoll-Paque+Leucosept gradient method, with lymphocytes isolation using CD4+ T Cell Isolation Kit, and activation using T Cell Activation/Expansion Kit (Miltenyi Biotec). Isolated cells in culture medium (90% RPMI 1640+10% FBS) were sived on 12-well plates at 450 μL/well, 300 thousands/well, and 50 μL of prepared 10× stock solutions of tested compounds were added. After 48 hours supernatant was collected for determination of the level of secreted cytokines. Before determination, cells were centrifuged at 1000 g, 10 min. Determination was performed with flow cytometer FACS Calibur using LEGENDplex Human Th cytokine kit. Results are presented in Table 3 as a percentage of inhibition of TNFα i INFγ cytokines secreted by lymphocytes T with reference to control cells.

Sequence of Recombinant kinase JAK3 (P52333 whole entry): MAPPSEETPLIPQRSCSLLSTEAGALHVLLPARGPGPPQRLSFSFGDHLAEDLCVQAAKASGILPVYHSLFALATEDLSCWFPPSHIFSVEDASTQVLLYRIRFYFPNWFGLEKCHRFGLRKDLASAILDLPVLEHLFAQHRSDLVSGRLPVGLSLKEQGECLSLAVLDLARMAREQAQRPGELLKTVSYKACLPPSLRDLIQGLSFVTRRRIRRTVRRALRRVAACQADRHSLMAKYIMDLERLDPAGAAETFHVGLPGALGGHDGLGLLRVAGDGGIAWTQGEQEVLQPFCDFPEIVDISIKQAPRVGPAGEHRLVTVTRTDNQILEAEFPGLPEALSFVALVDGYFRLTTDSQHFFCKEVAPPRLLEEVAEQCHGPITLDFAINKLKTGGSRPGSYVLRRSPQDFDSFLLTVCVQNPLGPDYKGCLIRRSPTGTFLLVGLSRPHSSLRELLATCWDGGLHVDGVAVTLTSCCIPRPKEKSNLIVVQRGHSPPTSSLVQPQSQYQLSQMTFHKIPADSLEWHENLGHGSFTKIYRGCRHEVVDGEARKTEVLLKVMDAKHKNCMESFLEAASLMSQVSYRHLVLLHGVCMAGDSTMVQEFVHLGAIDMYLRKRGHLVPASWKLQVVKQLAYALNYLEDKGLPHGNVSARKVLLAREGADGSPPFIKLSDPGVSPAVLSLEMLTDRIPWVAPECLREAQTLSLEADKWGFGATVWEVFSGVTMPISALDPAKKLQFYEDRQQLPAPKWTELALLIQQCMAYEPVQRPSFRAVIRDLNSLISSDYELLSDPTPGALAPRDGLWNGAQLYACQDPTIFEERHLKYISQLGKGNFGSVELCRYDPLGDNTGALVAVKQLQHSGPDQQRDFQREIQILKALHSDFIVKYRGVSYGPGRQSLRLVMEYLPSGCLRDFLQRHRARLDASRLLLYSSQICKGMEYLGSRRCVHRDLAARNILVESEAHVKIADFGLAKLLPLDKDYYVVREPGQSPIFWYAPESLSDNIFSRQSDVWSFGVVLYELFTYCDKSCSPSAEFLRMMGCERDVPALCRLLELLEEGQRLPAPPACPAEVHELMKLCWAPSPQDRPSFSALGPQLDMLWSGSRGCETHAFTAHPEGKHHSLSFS

Row | Compound | IC50 (Recombinant kinase JAK3) [nM] | IC50 (Recombinant kinase JAK1) [nM] | IC50 (Recombinant kinase JAK2) [nM] | inhibition at 0.01 µM [1] [%] | inhibition at 0.1 µM [1] [%] | inhibition at 1 µM [1] [%]
1 | Cc1cc(-c2cc3ncc(C(N)=O)c(N[C@@H]4CCN(c5ccc(C#N)nn5)CC4(C)C)n3n2)ccn1 [Example 12, (R)-7-((1-(6-Cyanopyridazin-3-yl)-3,3-dimethylpiperidin-4-yl)amino)-2-(2-methyl-pyridin-4-yl)pyrazolo[1,5-a]pyrimidine-6-carboxamide] | 0.29 | 0.51 | 5.05 | 76.2 | 75.8 | 95.4
2 | COc1cccc(-c2cc3ncc(C(N)=O)c(N[C@@H]4CCN(c5ccc(C#N)nn5)CC4(C)C)n3n2)n1 [Example 11, (R)-7-((1-(6-Cyanopyridazin-3-yl)-3,3-dimethylpiperidin-4-yl)amino)-2-(6-methoxy-pyridin-2-yl)pyrazolo[1,5-a]pyrimidine-6-carboxamide] | 0.03 | 0.05 | 1.18 | 57.4 | 88.1 | 88.5
3 | CC1(C)CN(c2ccc(C#N)nn2)CC[C@H]1Nc1c(C(N)=O)cnc2cc(-c3ccc(N4CCOCC4)nc3)nn12 [Example 7, (R)-7-((1-(6-Cyanopyridazin-3-yl)-3,3-dimethylpiperidin-4-yl)amino)-2-(6-morpholinopyridin-3-yl)pyrazolo[1,5-a]pyrimidine-6-carboxamide] | 0.19 | 0.75 | 3.4 | 60.6 | 76 | 98.5
4 | COc1ccc(-c2cc3ncc(C(N)=O)c(N[C@@H]4CCN(c5ccc(C#N)nn5)CC4(C)C)n3n2)cn1 [Example 4, (R)-7-((1-(6-Cyanopyridazin-3-yl)-3,3-dimethylpiperidin-4-yl)amino)-2-(6-methoxy-pyridin-3-yl)pyrazolo[1,5-a]pyrimidine-6-carboxamide] | 2.67 | 2.67 | 27.7 | 57.1 | 78.7 | 95.3
